Experimental data taken from patent publication US20250288572A1, “COMPOSITIONS AND METHODS FOR TREATING PULMONARY VASCULAR DISEASE” (UNIVERSITY OF PITTSBURGH-OF THE COMMONWEALTH SYSTEM OF …, priority 2022, published 2025).
Entries after “also recorded” stand apart in the source; their conditions may differ. Where a SMILES comes first, the peptide text is derived from it. The star is where a group is joined. Cbz = O=C(OCc1ccccc1)*

Legend:
[1] = system: rats with PAH due to monocrotaline exposure; assay: Monocrotaline PAH rats, glutaminase inhibitors daily i.p. Days 7-21 (Example 2); assay type: in vivo; conditions: MCT rats; for Fulton index / right ventricular systolic pressure (RVSP): 10 mg/kg daily i.p. Days 7-21, vs vehicle control
Protocol: In rats with PAH due to monocrotaline exposure, daily i.p, delivery of CB-839 (10 mg/kg) vs. UPGL00064 (10 mg/kg) vs. vehicle control was performed from Days 7-21 post-monocrotaline exposure. […] Error bars represent ±SEM. […] In rats with PAH due to monocrotaline exposure, daily i.p. delivery of CB-839 (10 mg/kg) vs. UPGL000064 (10 mg/kg) vs. vehicle control was performed from Days 7-21 post-monocrotaline exposure. […] Error bars represent ±SEM.

PAECs [2] = assay: RT-qPCR gene expression in PAECs; assay type: cell-based, human; conditions: for expression of Cluster 15 members (SLC9A3R1, LGALS3): IL-1β-induced expression changes
Protocol: (§1) The hypoxia chamber (modular incubator chamber) was obtained from Billups-Rothenberg Inc. (Del Mar, Cali) and placed in regulated CO2 incubator at 37° C.
RT-qPCR analysis: Cells were lysis in 1 ml of QiaZol reagent (Qiagen). Total RNA content was extracted using the RNeasy kit (Qiagen), according to the manufacturer's instructions. Total RNA concentration was determined using a BioTek Synergy multimode plate reader. Messenger RNAs were reverse transcribed to generate cDNA using the Multiscript RT kit (Thermo Fisher Scientific). cDNA for specific gene targets was amplified and quantified via fluorescently-labeled Taqman primer sets and Taqman fast advanced master mix (Thermo Fisher Scientific) using an Applied Biosystems QuantStudio 6 Flex Real-Time PCR System.

LGALS8 = assay: Immunoblot and densitometry of LGALS8 isoforms in PAECs; assay type: cell-based, human; conditions: IL-1β, listed as I-BET
Protocol: (§2) Immunoblot and densitometry: Cells were lysed in RIPA buffer (Sigma) along with 1× protease inhibitor cocktail (Sigma). Protein lysate was resolved by gradient 4%-15% SDS-PAGE gels and transferred onto a 0.2 μm PVDF membrane (Bio-Rad). Membranes were blocked in 5% non-fat milk in 1×PBST buffer for one hour at room temperature. Later, they were incubated in the presence of the primary antibody overnight at 4° C., and then appropriate HRP-conjugated secondary antibodies (Life Technologies). The following antibodies were used: human LGALS8 (AF1305, RnD Systems), mouse/rat Lgals8 ([…], Abcam), pSTAT1 (ab29045, Abcam) and STAT1 (ab47425, Abcam), GSTP1 (ab153949, Abcam), ISCU (14812-1-AP, Pointech), Glutathione (ab19534, Abcam), HIF2A (NB100-122, Novous), α-Tubulin (CP06, Millipore sigma), and ACTB (sc-47778, Santa Cruz). The immunoreactive bands were visualized with the Chemidoc XRS+ system (Bio-Rad) using SuperSignal West Femto chemiluminescent substrates (Thermo Fisher Scientific). The images were later quantified using AlphaEaseFC software (Alpha Innotech).

[3] = system: SU5416-hypoxic pulmonary arterial hypertension rats; assay: SU5416-hypoxia pulmonary arterial hypertension rat model, disease-reversal dosing; assay type: in vivo, Sprague-Dawley rats; conditions: SU5416-hypoxia rats
Protocol: Briefly, 10 week old male Sprague-Dawley rats were injected i.p. with 20 mg/kg of SU5416 (Sigma), placed in normobaric hypoxia (10% 02) for 3 weeks and then transferred to normoxia for 2 weeks. During hypoxic exposure, chambers were opened twice a week for cleaning and replenishment of food and water. […] For BRD2889 vs. vehicle control dosing, i.p. injections every 5 days (5 mg/kg) were administered during the final two weeks of normoxia. Oxygen concentrations were continuously monitored with blood gas analyzers.
Measurement of GST activity: The GST activity from lung tissue and PAECs was assayed using GST assay kit (Cayman, MI, USA) per the manufacturer's instructions.
Rodent echocardiography: Echocardiography was performed using a 15-45M Hz transthoracic transducer and a Visual Sonics Vevo 3100 system (Fujifilm). Inhaled isoflurane anesthesia was used at 2% in 100% 02 during positioning and hair removal and then decreased to isoflurane 0.8% during imaging.

PAECs [4] = assay: Cellular apoptosis, caspase-3/7 activity (Caspase-Glo 3/7) in PAECs; assay type: cell-based, human; conditions: PAECs
Protocol: as §1
Cellular apoptosis: Caspase-3/7 activity was quantified using the Caspase-Glo 3/7 Assay (Promega), according to manufacturer's instructions. Caspase-3/7 activity was normalized to total protein content determined by BCA method (Thermo Fisher Scientific).

[5] = system: hypoxia-induced pulmonary hypertension mice; assay: Hypoxia-induced (Group 3) pulmonary hypertension mouse model
From the text: Animal models: For the hypoxia-induced pulmonary hypertension mice, male C57BL/6J mice (8 weeks old) (RRID:IMSR_JAX:000664) were purchased from Jackson laboratory and acclimatized for 3-4 days in this facility. Subsequently, mice scheduled for normoxic vs. hypoxic exposure were maintained in either normoxia or a normobaric hypoxia chamber for 1 or 3 weeks (OxyCycler, Biospherix Ltd.), where consistent exposure to 10% oxygen and control for temperature and humidity were possible.
I-BET was dissolved in DMSO at 100× concentration and then made into a working solution in 20% PEG400 and 80% 1×PBS.
Male and female 8 week old Lgals8−/− mice were exposed to hypoxia for 3 weeks. Littermates were used as wildtype (WT) control when comparing with knockout mice.
Immunofluorescent staining: Cryostat sections were cut from OCT-embedded lung tissues at 5-10 μm and mounted on gelatin-coated histological slides. Slides were thawed at room temperature for 10-20 min and rehydrated in wash buffer for 10 minutes. All sections were blocked in 10% donkey scrum and exposed to primary antibody and Alexa 488, 568 and 647-conjugated secondary antibodies (Thermo Fisher Scientific). The following primary antibodies were used: Lgals8 (Ab69631, Abcam; 1/2200), IL-1 (ab9722, Abcam; 1%200), GSTP1 (ab153949, Abcam; 1:100), ISCU (14812-1-AP, Proteintech; 1:100), cleaved caspase 3 (cs-9661, Cell Signaling; 1/400), α-SMA (F3777, Sigma; I/200) and CD31 (ab7388, Abcam: 1/200). Images were obtained using Nikon A1 confocal microscope with 40× objective. Small pulmonary vessels (10 vessels/section) that were not associated with bronchial airways were selected for analysis. Intensity of staining was quantified using ImageJ software (NIH). Degree of pulmonary arteriolar muscularization was assessed in OCT lung sections stained for α-SMA by calculation of the proportion of fully and partially muscularized peripheral (<100 μm diameter) pulmonary arteriole to total peripheral pulmonary arterioles (Bertero T et al. J Clin Invest. 2014, 124, 3514-3528).

PAECs [6] = assay: Flow cytometry detection of mitochondrial superoxide (MitoSOX Red) in PAECs
Protocol: To assess the effect of I-BET under inflammatory conditions, cells were treated with recombinant human IL-1β (10 ng/ml, Peprotech) at about 70-80% confluency for 48 h in complete media along with vehicle control (DMSO, Sigma-41639), I-BET151 (500 nM), 1-BET762 (500 nM) (Selleckchem-S2780/S7189), as indicated.
For hypoxia exposure, cells were plated in 6-well cell culture plates at 1×10^5 cells/well, grown for 24 hr and placed into a normobaric hypoxia chamber (1%02) for 24 h under specific treatment conditions. Namely, for I-BET and siLGALS8 exposures, cells were either pre-treated with I-BET/vehicle control (VC) or transfected with siLgals8/Scr for 24 h. Then, they were cultured in basal media at 1% 02. After 24 h, caspase activity and mitochondrial superoxide levels were quantified. To detect activation status of pSTAT1/STAT1 by immunoblot, cells were exposed to 8 h of hypoxia.
Flow cytometry detection of mitochondria superoxide: For measuring mitochondrial superoxide, cells were incubated with 5 μM of MitoSOX Red mitochondrial superoxide indicator (Thermo Fisher Scientific) for 10 min in 37° C.

ISCU = assay: Protein stability assay (proteasome inhibitor MG132) in hypoxic PAECs; assay type: cell-based, human; design: dose or concentration left out as unconfirmed; conditions: MG132 (2 h)
Protocol: Protein stability assay: The proteasome inhibitor MG132 (M7449, Sigma) was stored at −20° C. at a concentration of 10 mM diluted in dimethyl sulfoxide (DMSO). PAECs were exposed to MG132 ([…]) vs. DMSO vehicle control for 2 hr under hypoxia, prior to harvesting of cellular lysate for immunoblotting.
as §2

[7] = I-BET762 30 mg/kg daily i.p. or BRD2889 5 mg/kg i.p. every 5 days, final 2 weeks
[8] = IL-1β 10 ng/ml 48 h, 500 nM vs vehicle control
[9] = IL-1β 10 ng/ml 48 h, 500 nM vs vehicle control, listed as I-BET
[10] = hypoxic mice, I-BET762 30 mg/kg daily oral
[11] = IL-1β 48 h, I-BET plus rhGal8 24 h (30 nM)

## O=C(Cc1cccc(OC(F)(F)F)c1)Nc1ccc(CCCCc2nnc(NC(=O)Cc3ccccn3)s2)nn1 [CB-839, reference compound]
[1]
  Fulton index: significantly decreased
  right ventricular systolic pressure (RVSP): significantly decreased

## COc1cc2c(cc1-c1c(C)noc1C)ncc1[nH]c(=O)n([C@H](C)c3ccccn3)c12 [I-BET151]
PAECs [2]
  expression of Cluster 15 members (SLC9A3R1, LGALS3): reversed

## CCNC(=O)C[C@@H]1N=C(c2ccc(Cl)cc2)c2cc(OC)ccc2-n2c(C)nnc21 [I-BET762]
PAECs [2]; IL-1β
  LGALS8-L transcript: reversed the alterations
  expression of C15 genes LGALS3, LGALS8, DAG1, SLC9A3R1 (extent of reversal): near complete reversal
  expression of CD47, ABCC4 and DAG1: all rescued
  expression of Cluster 15 (C15) gene galectin-8 (LGALS8): reversed the IL-1β-induced increases
PAECs [2]; IL-1β, listed as I-BET
  LGALS8-L transcript: reversed by I-BET
  LGALS8-M transcript: not altered by I-BET
PAECs [2]
  expression of Cluster 15 members (SLC9A3R1, LGALS3): reversed
LGALS8
  LGALS8-L protein (immunoblot densitometry): followed its mRNA expression; also recorded: reversed the IL-1β-induced increase
  LGALS8-M protein (immunoblot densitometry): no significant difference
[3]; I-BET762 30 mg/kg daily i.p. Days 21-35
  LGALS8 in pulmonary arterioles (immunofluorescence): decreased
[3]; [7]
  arteriolar muscularization (α-SMA): reduced
  cleaved caspase-3 (CC-3), endothelial apoptosis: reduced downstream apoptosis; also recorded: decreased
  right ventricular systolic pressure (RVSP): reduced
PAECs [4]; [8]
  apoptosis, caspase-3/7 activity: reversed the IL-1β-induced increases
PAECs [4]; [9]
  apoptosis, caspase-3/7 activity: reduced the IL-1β-dependent increase
PAECs [4]; hypoxia 24 h, I-BET vs vehicle control
  apoptosis, caspase-3/7 activity: reversed the hypoxia-induced increases
[5]; [10]
  cleaved caspase-3 (apoptosis): reduced downstream apoptosis; also recorded: reversed the 3 week hypoxia-dependent increases
  heart rate: without significant effect
  pulmonary vascular LGALS8 expression: robustly decreased; also recorded: reversed the 3 week hypoxia-dependent increases
  pulmonary vascular muscularization (α-SMA): reduced; also recorded: reversed the 3 week hypoxia-dependent increases
  right ventricular systolic pressure (RVSP): reduced; also recorded: reversed the 3 week hypoxia-dependent increases
[5]; normoxic mice, similar dosing, mean±SEM, vehicle control 1±0.02, p=NS
  LGALS8: 1.08±0.03 fold change
PAECs [6]; [8]
  mitochondrial superoxide (O2−) levels, MitoSOX Red: reversed the IL-1β-induced increases; also recorded: reversed by I-BET762
PAECs [6]; [9]
  mitochondrial superoxide (O2−) levels, MitoSOX Red: reduced the IL-1β-dependent increase
PAECs [6]; hypoxia 24 h, vs vehicle control
  mitochondrial superoxide (O2−) levels, MitoSOX Red: reversed the hypoxia-induced increases

## CC(C)C[C@@H](C=O)NC(=O)[C@H](CC(C)C)NC(=O)[C@H](CC(C)C)NC(=O)OCc1ccccc1 [MG132] (Cbz-Leu-Leu-Leu-aldehyde)
ISCU
  GSTP1 and ISCU glutathionylation: without affecting GSTP1 or glutathionylation
  ISCU protein: reversed the hypoxic down-regulation of ISCU; also recorded: reversed the hypoxia-induced reduction of ISCU

## O=C(Cc1ccccc1)Nc1nnc(NC2CCN(c3nnc(NC(=O)CC4CC4)s3)CC2)s1 [UPGL00064]
[1]; 10 mg/kg daily i.p. Days 7-21
  Fulton index, compared with CB-839: more robust trend toward lower Fulton index
  RVSP, compared with CB-839: more robust trend toward lower RVSP
[1]
  Fulton index: significantly decreased
  right ventricular systolic pressure (RVSP): significantly decreased

B1: rhGal8: recombinant human LGALS8 (galectin-8), R&D Systems 1305-GA-050 (protein, UniProt O00214 1-317, looked up)
Galectin-8: MMLSLNNLQNIIYNPVIPFVGTIPDQLDPGTLIVIRGHVPSDADRFQVDLQNGSSMKPRADVAFHFNPRFKRAGCIVCNTLINEKWGREEITYDTPFKREKSFEIVIMVLKDKFQVAVNGKHTLLYGHRIGPEKIDTLGIYGKVNIHSIGFSFSSDLQSTQASSLELTEISRENVPKSGTPQLRLPFAARLNTPMGPGRTVVVKGEVNANAKSFNVDLLAGKSKDIALHLNPRLNIKAFVRNSFLQESWGEEERNITSFPFSPGMYFEMIIYCDVREFKVAVNGVHSLEYKHRFKELSSIDTLEINGDIHLLEVRSW
PAECs [4]; [11]
  caspase 3/7 activity (apoptosis): effect of rhGal8 on the I-BET-induced attenuation: reduced the ability of I-BET to decrease; also recorded: reversed the I-BET-induced attenuation
PAECs [4]; rhGal8 alone
  apoptosis: alone had no effect
PAECs [6]; [11]
  mitochondrial O2−: effect of rhGal8 on the I-BET-induced attenuation: reduced the ability of I-BET to decrease; also recorded: reversed the I-BET-induced attenuation; also recorded: attenuated
PAECs [6]; rhGal8 alone
  mitochondrial superoxide: alone had no effect
